In patent publication US5086067A, “LTB4 synthesis inhibitors” (G. D. Searle & Co., priority 1989, dated 1992) one finds IC50 data, which are given here for 14 molecules.

The IC50 is the concentration needed to halve the response being measured.

In test [1] the target is T1, Human synovial fluid phospholipase A2 (HSF-PLA2) (Homo sapiens, UniProt P14555).
T1 construct: Human synovial fluid phospholipase A2 was purified approximately 5000 fold; from tissue; host or cells: human synovial fluid
T1 sequence (P14555 21-144): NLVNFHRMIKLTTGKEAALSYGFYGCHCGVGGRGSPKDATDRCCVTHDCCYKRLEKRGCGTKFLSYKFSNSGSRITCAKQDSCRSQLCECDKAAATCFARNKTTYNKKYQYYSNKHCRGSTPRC
The test can be described thus: Human synovial fluid phospholipase A2 (HSF-PLA2) assay. The class given is biochemical. The note with it: [14C]-oleate-labeled E. coli substrate, pH 7.0, 5 min pre-incubation, 37° C., 30 minutes. On the procedure: Human synovial fluid phospholipase A2 was purified approximately 5000 fold following the procedures of Franson et al., Lung 160, 275-284 (1982) and Fawzy et al., Bio Phys. J. 49, 533a (1986). Following purification the enzyme activity was measured by established methodology using [^14 C]-oleate-labeled, autoclaved E. coli as the substrate as also shown in the above noted references. The assay was performed in a final volume of […] containing 50 mM HEPES (pH 7.0), 150 mM NaCl, 5mM CaCl2, 7 mM [14C]-oleate-labeled E. coli phospholipid and with or without the compound from one of the examples herein undergoing an assay. The compound or control vehicle was pre-incubated with the PLA2 for 5 minutes followed by addition of the E. coli substrate to initiate the reaction. The reaction was maintained at 37° C. for 30 minutes and then terminated by the addition of 2 ml tetrahydrofuran (THF). The reaction product, [14C] -oleic acid, was extracted using a 1 ml Bond Elut NH2 Solid phase extraction column. The IC50 value for the compound (mean +/- S.E.) is given in the following Table and represents the concentration of the compound required to inhibit 50% of the PLA2 activity.

Test [2] concerns LTB4 biosynthesis in HL-60 cells. As to the kind of experiment: Assay for LTB4 production by HL-60 cells (LTB4 biosynthesis inhibition). The class given is cell-based. The conditions noted are these: Homo sapiens; differentiated HL-60 cells, 10 min pre-incubation at 37° C., 5×10^-6 M A23187 for 5 minutes, radioimmunoassay; read-out: LTB4 Biosynthesis inhibition (HL60 cells) IC50. On the procedure:
HL-60 cells were induced to differentiate into granulocytes by a 4 day incubation with 0.8% (v/v) N,N-dimethyl formamide as disclosed in Fontana et al., Proc. Natl. Acad. Sci. 78 (6):3863-3866 (1981); Agins et al., Biochem. Biophys. Res. Comm. 126, 143-149 (1985); and Bonser et al., Biochemistry 20: 5297-5301 (1981). Prior to performing the assay, differentiated HL-60 cells were washed once with Hanks. balanced salt solution containing 0.35 mg/ml sodium bicarbonate and 10 mM HEPES pH 7.35 (HBSS). HL-60 cells (3×10^6 cells/ml) were pre-incubated with the compound tested or a control vehicle at 37° C. for 10 minutes, followed by 5 minute incubation with 5×10^-6 M calcium ionophore A23187 in a final volume of 1.0 ml. After incubation, the cells were pelleted by centrifugation and the LTB4 and PGE2 in the supernatant were quantified by radioimmunoassay. IC50 values (means +/- S.E.) for compounds herein that were tested are shown in the following Table and represent the concentrations of the compound required to inhibit 50% of LTB4 or PGE2 production by HL-60 cells stimulated with the calcium ionophore A23187.

`CCCCCCCCCCCCC#CC(=O)c1ccc(C(=O)O)cc1` [Example 3]: the IC50 came out at 14 µM in test [1] and 200 nM in test [2].

With `CCCCCCCCCCCCCC#CC(=O)c1cccc(C(=O)O)c1` [Example 4], the results for the IC50 in test [1] and in test [2] were 11 µM and 800 nM, respectively.

`CCCCCCCCCCCCCC#CC(=O)c1ccccc1C(=O)O` [Example 6] came in with an IC50 in test [1] of 13 µM.

Take `CCCCCCCCCCCCCC#CC(O)c1ccc(C(=O)O)o1` (stereo not drawn) [Example 11]: the IC50 in test [1] amounted to 28 µM; in test [2], 2400 nM.

Take `CCCCCCCCCCCCCC#CC(=O)c1ccc(C(=O)O)o1` [Example 12]: the IC50 in test [1] is 34 µM; in test [2] it was 500 nM.

Consider `CCCCCCCCCCCCCC#CC(=O)c1cccc(C(=O)O)n1` [Example 13], for which the IC50 in test [1] was determined as 2.5 µM; in test [2], 800 nM.

Turning to `CCCCCCCCCCCCCC#CC(O)c1ccc(O)c(C(=O)O)c1` (stereo not drawn) [Example 16], the IC50 is 11 µM in test [1] and 8000 nM in test [2].

For the molecule `CCCCCCCCCCCCCC#CC(=O)c1ccc(O)c(C(=O)O)c1` [Example 17], the IC50 in test [1] came to 33 µM; in test [2], 400 nM.

`CCCCCC#CCCCCCCC#CC(O)c1cccc(C(=O)O)c1` (stereo not drawn) [Example 18] registered an IC50 in test [1] of 28 µM.

Consider `CCCCCCCCCCCCCC#CC(O)c1ccc(C(=O)O)s1` (stereo not drawn) [Example 24], for which the IC50 was 18 µM in test [1] and 900 nM in test [2].

Regarding `CCCCCCCCCCCCCC#CC(=O)c1ccc(C(=O)O)s1` [Example 25], the half-inhibitory concentration (IC50) in test [1] stood at 15 µM; in test [2] it was 400 nM.

`CCCCCCCCCCCCCC#CC(=O)c1cccc(C(=O)NS(=O)(=O)c2ccccc2)c1` [Example 27] yielded an IC50 in test [1] of 14 µM.

In test [1], `CCCCCCCCCCCCCC#CC(O)c1cccc(-c2nn[nH]n2)c1` (stereo not drawn) [Example 29] registered an IC50 of 42 µM.

With `CCCCCCCCCCCCCC#CC(=O)c1cccc(-c2nn[nH]n2)c1` [Example 30], the IC50 in test [1] was 11 µM; in test [2], 900 nM.
